This passage reports IC50 results from patent US20260274829A1, “NEW E3 UBIQUITIN LIGASE LIGAND, PROTEIN DEGRADATION AGENT AND USE THEREOF” (GLUETACS THERAPEUTICS (SHANGHAI) CO., LTD., priority 2023, published 2026).

T1 sequence (Q96SW2 whole entry): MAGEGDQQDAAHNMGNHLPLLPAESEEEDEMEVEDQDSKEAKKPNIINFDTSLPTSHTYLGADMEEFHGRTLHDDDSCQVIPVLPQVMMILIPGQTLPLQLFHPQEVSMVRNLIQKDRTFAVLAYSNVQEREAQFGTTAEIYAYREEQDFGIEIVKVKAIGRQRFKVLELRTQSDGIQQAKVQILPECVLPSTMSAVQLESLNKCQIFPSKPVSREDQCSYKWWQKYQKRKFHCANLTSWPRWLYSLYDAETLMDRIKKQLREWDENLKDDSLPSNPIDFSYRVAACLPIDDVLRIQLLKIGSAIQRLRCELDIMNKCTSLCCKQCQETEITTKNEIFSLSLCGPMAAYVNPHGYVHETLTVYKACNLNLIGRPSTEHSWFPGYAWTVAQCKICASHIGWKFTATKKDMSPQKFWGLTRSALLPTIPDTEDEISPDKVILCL

This experiment has as its target T1, human Cereblon WT GST-tagged protein (Homo sapiens, UniProt Q96SW2).
T1 construct: purchased CISBIO 64BDCRBNPEH
The experiment is described as follows: CRBN binding, HTRF CEREBLON BINDING kit. The conditions noted are these: CRBN binding, HTRF CEREBLON BINDING kit. The gist of the method:
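HTRF competition in which test compounds displace a Thalidomide-Re tracer from GST-tagged human Cereblon WT, detected with a GST Eu antibody. Incubation lasted 3 hours at room temperature, with emission read at 620 and 665 nm. Inhibition rate was derived from 665/620 ratios relative to blank and solvent control wells.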
In general terms: Time-resolved FRET reads energy transfer from a long-lived donor to a nearby acceptor.
As to `O=C1CCN(c2ccc(CN3CCN(C4CCN(c5ccc(-c6cc(F)c7c(c6)C(=O)N(C(C(=O)Nc6nccs6)c6ncn8c6CCC8)C7)cc5)CC4)CC3)cc2)C(=O)N1` (stereo not shown) [GT-06244, 2-(6,7-dihydro-5H-pyrrolo[1,2-c]imidazol-1-yl)-2-(6-(4-(4-(4-(4-(2,4-dioxotetrahydropyrimidin-1(2H)-yl)benzyl)piperazin-1-yl)piperidin-1-yl)phenyl)-4-fluoro-1-oxoisoindolin-2-yl)-N-(thiazol-2-yl)acetamide], the 50% inhibitory concentration (IC50) (as a rule, the midpoint of a concentration-inhibition curve) was in the range of 0.5 to 1 µM. The value for `O=C1CCN(c2cccc(CN3CCN(C4CCN(c5ccc(-c6cc(F)c7c(c6)C(=O)N(C(C(=O)Nc6nccs6)c6ncn8c6CCC8)C7)cc5)CC4)CC3)c2)C(=O)N1` (stereo not shown) [GT-06245, 2-(6,7-dihydro-5H-pyrrolo[1,2-c]imidazol-1-yl)-2-(6-(4-(4-(4-(3-(2,4-dioxotetrahydropyrimidin-1(2H)-yl)benzyl)piperazin-1-yl)piperidin-1-yl)phenyl)-4-fluoro-1-oxoisoindolin-2-yl)-N-(thiazol-2-yl)acetamide] was less than 0.5 µM; that for `O=C1CCN(c2ccc(CN3CCN(C4CCN(c5ccc(-c6cc(F)c7c(c6)C(=O)N(C(C(=O)Nc6nccs6)c6ncn8c6CCC8)C7)cc5)CC4)CC3)nc2)C(=O)N1` (stereo not shown) [GT-06246, 2-(6,7-dihydro-5H-pyrrolo[1,2-c]imidazol-1-yl)-2-(6-(4-(4-(4-((5-(2,4-dioxotetrahydropyrimidin-1(2H)-yl)pyridin-2-yl)methyl)piperazin-1-yl)piperidin-1-yl)phenyl)-4-fluoro-1-oxoisoindolin-2-yl)-N-(thiazol-2-yl)acetamide] was less than 0.5 µM.

Regarding `O=C1CCC(Nc2cccc(CN3CCN(C4CCN(c5ccc(-c6cc(F)c7c(c6)C(=O)N(C(C(=O)Nc6nccs6)c6ncn8c6CCC8)C7)cc5)CC4)CC3)c2)C(=O)N1` (stereo not shown) [GT-06247, 2-(6,7-dihydro-5H-pyrrolo[1,2-c]imidazol-1-yl)-2-(6-(4-(4-(4-(3-((2,6-dioxopiperidin-3-yl)amino)benzyl)piperazin-1-yl)piperidin-1-yl)phenyl)-4-fluoro-1-oxoisoindolin-2-yl)-N-(thiazol-2-yl)acetamide], the concentration for half-maximal inhibition (IC50) is 0.5 to 1 µM. The value for `O=C1CCC(c2ccc(CN3C4CCC3CN(c3ccc(-c5cc(F)c6c(c5)C(=O)N(C(C(=O)Nc5nccs5)c5ncn7c5CCC7)C6)cc3)C4)cc2)C(=O)N1` (stereo not shown) [GT-06252, 2-(6,7-dihydro-5H-pyrrolo[1,2-c]imidazol-1-yl)-2-(6-(4-(8-(4-(2,6-dioxopiperidin-3-yl)benzyl)-3,8-diazabicyclo[3.2.1]octan-3-yl)phenyl)-4-fluoro-1-oxoisoindolin-2-yl)-N-(thiazol-2-yl)acetamide] was less than 0.5 µM; that for `O=C1CCN(c2ccc(CN3C4CCC3CN(c3ccc(-c5cc(F)c6c(c5)C(=O)N(C(C(=O)Nc5nccs5)c5ncn7c5CCC7)C6)cc3)C4)cc2)C(=O)N1` (stereo not shown) [GT-06253, 2-(6,7-dihydro-5H-pyrrolo[1,2-c]imidazol-1-yl)-2-(6-(4-(8-(4-(2,4-dioxotetrahydropyrimidin-1(2H)-yl)benzyl)-3,8-diazabicyclo[3.2.1]octan-3-yl)phenyl)-4-fluoro-1-oxoisoindolin-2-yl)-N-(thiazol-2-yl)acetamide] was 0.5 to 1 µM; that for `O=C1CCN(c2cccc(CN3C4CCC3CN(c3ccc(-c5cc(F)c6c(c5)C(=O)N(C(C(=O)Nc5nccs5)c5ncn7c5CCC7)C6)cc3)C4)c2)C(=O)N1` (stereo not shown) [GT-06254, 2-(6,7-dihydro-5H-pyrrolo[1,2-c]imidazol-1-yl)-2-(6-(4-(8-(3-(2,4-dioxotetrahydropyrimidin-1(2H)-yl)benzyl)-3,8-diazabicyclo[3.2.1]octan-3-yl)phenyl)-4-fluoro-1-oxoisoindolin-2-yl)-N-(thiazol-2-yl)acetamide] was less than 0.5 µM.

Consider `O=C1CCN(c2ccc(CN3C4CCC3CN(c3ccc(-c5cc(F)c6c(c5)C(=O)N(C(C(=O)Nc5nccs5)c5ncn7c5CCC7)C6)cc3)C4)nc2)C(=O)N1` (stereo not shown) [GT-06255, 2-(6,7-dihydro-5H-pyrrolo[1,2-c]imidazol-1-yl)-2-(6-(4-(8-((5-(2,4-dioxotetrahydropyrimidin-1(2H)-yl)pyridin-2-yl)methyl)-3,8-diazabicyclo[3.2.1]octan-3-yl)phenyl)-4-fluoro-1-oxoisoindolin-2-yl)-N-(thiazol-2-yl)acetamide], for which the IC50 was less than 0.5 µM. The value for `O=C1CCC(c2ccc(CN3CCN(C4CCN(c5ccc(-c6cc(F)c7c(c6)C(=O)N(C(C(=O)Nc6nccs6)c6ncn8c6CCC8)C7)cc5)CC4(F)F)CC3)cc2)C(=O)N1` (stereo not shown) [GT-06317, 2-(6,7-dihydro-5H-pyrrolo[1,2-c]imidazol-1-yl)-2-(6-(4-(4-(4-(4-(2,6-dioxopiperidin-3-yl)benzyl)piperazin-1-yl)-3,3-difluoropiperidin-1-yl)phenyl)-4-fluoro-1-oxoisoindolin-2-yl)-N-(thiazol-2-yl)acetamide] was 1 to 1.9 µM; that for `O=C1CCN(c2ccc(CN3CCN(C4CCN(c5ccc(-c6cc(F)c7c(c6)C(=O)N(C(C(=O)Nc6nccs6)c6ncn8c6CCC8)C7)cc5)CC4(F)F)CC3)cc2)C(=O)N1` (stereo not shown) [GT-06318, 2-(6,7-dihydro-5H-pyrrolo[1,2-c]imidazol-1-yl)-2-(6-(4-(4-(4-(4-(2,4-dioxotetrahydropyrimidin-1(2H)-yl)benzyl)piperazin-1-yl)-3,3-difluoropiperidin-1-yl)phenyl)-4-fluoro-1-oxoisoindolin-2-yl)-N-(thiazol-2-yl)acetamide] was 1 to 1.9 µM.

Regarding `O=C1CCN(c2ccc(CN3CCN(C4CCN(c5ccc(-c6cc(F)c7c(c6)C(=O)N(C(C(=O)Nc6nccs6)c6ncn8c6CCC8)C7)cc5)CC4(F)F)CC3)nc2)C(=O)N1` (stereo not shown) [GT-06319, 2-(6,7-dihydro-5H-pyrrolo[1,2-c]imidazol-1-yl)-2-(6-(4-(4-(4-((5-(2,4-dioxotetrahydropyrimidin-1(2H)-yl)pyridin-2-yl)methyl)piperazin-1-yl)-3,3-difluoropiperidin-1-yl)phenyl)-4-fluoro-1-oxoisoindolin-2-yl)-N-(thiazol-2-yl)acetamide], the half-maximal inhibitory concentration (IC50) is less than 0.5 µM. Under `O=C1CCC(c2ccc(CN3CCC(N4CCN(c5ccc(-c6cc(F)c7c(c6)C(=O)N(C(C(=O)Nc6nccs6)c6ncn8c6CCC8)C7)cc5)CC4)CC3)cc2)C(=O)N1` (stereo not shown) [GT-06326, 2-(6,7-dihydro-5H-pyrrolo[1,2-c]imidazol-1-yl)-2-(6-(4-(4-(1-(4-(2,6-dioxopiperidin-3-yl)benzyl)piperidin-4-yl)piperazin-1-yl)phenyl)-4-fluoro-1-oxoisoindolin-2-yl)-N-(thiazol-2-yl)acetamide] stands 0.5 to 1 µM. The value for `O=C1CCN(c2ccc(CN3CCC(N4CCN(c5ccc(-c6cc(F)c7c(c6)C(=O)N(C(C(=O)Nc6nccs6)c6ncn8c6CCC8)C7)cc5)CC4)CC3)cc2)C(=O)N1` (stereo not shown) [GT-06327, 2-(6,7-dihydro-5H-pyrrolo[1,2-c]imidazol-1-yl)-2-(6-(4-(4-(1-(4-(2,4-dioxotetrahydropyrimidin-1(2H)-yl)benzyl)piperidin-4-yl)piperazin-1-yl)phenyl)-4-fluoro-1-oxoisoindolin-2-yl)-N-(thiazol-2-yl)acetamide] was 0.5 to 1 µM; that for `O=C1CCN(c2cccc(CN3CCC(N4CCN(c5ccc(-c6cc(F)c7c(c6)C(=O)N(C(C(=O)Nc6nccs6)c6ncn8c6CCC8)C7)cc5)CC4)CC3)c2)C(=O)N1` (stereo not shown) [GT-06328, 2-(6,7-dihydro-5H-pyrrolo[1,2-c]imidazol-1-yl)-2-(6-(4-(4-(1-(3-(2,4-dioxotetrahydropyrimidin-1(2H)-yl)benzyl)piperidin-4-yl)piperazin-1-yl)phenyl)-4-fluoro-1-oxoisoindolin-2-yl)-N-(thiazol-2-yl)acetamide] was 0.5 to 1 µM; that for `O=C1CCN(c2ccc(CN3CCC(N4CCN(c5ccc(-c6cc(F)c7c(c6)C(=O)N(C(C(=O)Nc6nccs6)c6ncn8c6CCC8)C7)cc5)CC4)CC3)nc2)C(=O)N1` (stereo not shown) [GT-06329, 2-(6,7-dihydro-5H-pyrrolo[1,2-c]imidazol-1-yl)-2-(6-(4-(4-(1-((5-(2,4-dioxotetrahydropyrimidin-1(2H)-yl)pyridin-2-yl)methyl)piperidin-4-yl)piperazin-1-yl)phenyl)-4-fluoro-1-oxoisoindolin-2-yl)-N-(thiazol-2-yl)acetamide] was 1 to 1.9 µM.

Compound `O=C1CCC(Nc2cccc(CN3CCC(N4CCN(c5ccc(-c6cc(F)c7c(c6)C(=O)N(C(C(=O)Nc6nccs6)c6ncn8c6CCC8)C7)cc5)CC4)CC3)c2)C(=O)N1` (stereo not shown) [GT-06331, 2-(6,7-dihydro-5H-pyrrolo[1,2-c]imidazol-1-yl)-2-(6-(4-(4-(1-(3-((2,6-dioxopiperidin-3-yl)amino)benzyl)piperidin-4-yl)piperazin-1-yl)phenyl)-4-fluoro-1-oxoisoindolin-2-yl)-N-(thiazol-2-yl)acetamide] yielded an IC50 of 1 to 1.9 µM. The value for `CN(C)C(=O)c1cc2cnc(Nc3ccc(N4CCN(Cc5ccc(C6CCC(=O)NC6=O)cc5)CC4)cn3)nc2n1C1CCCC1` (stereo not shown) [GT-06339, 7-cyclopentyl-2-((5-(4-(4-(2,6-dioxopiperidin-3-yl)benzyl)piperazin-1-yl)pyridin-2-yl)amino)-N,N-dimethyl-7H-pyrrolo[2,3-d]pyrimidine-6-carboxamide] was less than 0.5 µM; that for `CN(C)C(=O)c1cc2cnc(Nc3ccc(N4CCN(Cc5ccc(N6CCC(=O)NC6=O)cc5)CC4)cn3)nc2n1C1CCCC1` [GT-06340, 7-cyclopentyl-2-((5-(4-(4-(2,4-dioxotetrahydropyrimidin-1(2H)-yl)benzyl)piperazin-1-yl)pyridin-2-yl)amino)-N,N-dimethyl-7H-pyrrolo[2,3-d]pyrimidine-6-carboxamide] was 0.5 to 1 µM; that for `CN(C)C(=O)c1cc2cnc(Nc3ccc(N4CCN(Cc5cccc(N6CCC(=O)NC6=O)c5)CC4)cn3)nc2n1C1CCCC1` [GT-06341, 7-cyclopentyl-2-((5-(4-(3-(2,4-dioxotetrahydropyrimidin-1(2H)-yl)benzyl)piperazin-1-yl)pyridin-2-yl)amino)-N,N-dimethyl-7H-pyrrolo[2,3-d]pyrimidine-6-carboxamide] was 0.5 to 1 µM.
